Test results published in US10259810B2, “N-sulfonylated pyrazolo[3,4-b]pyridin-6-carboxamides and method of use” (AbbVie S.à.r.l., priority 2015, dated 2019).

What was measured:
[1] = target: T1, ΔF508-CFTR (Homo sapiens, UniProt P13569, DEL508-508); test: CFTR cell surface levels using HRP-tagged ΔF508-CFTR expressing CFBE cells, intrinsic corrector capacity; assay type: cell-based; set-up: % Activation: concentration or dose not given beside the values; details: HRP-tagged ΔF508-CFTR expressing CFBE41o- cells, compound alone (intrinsic corrector capacity), 20 hours at 33° C.; for EC50: read-out: EC50
T1 construct: host or cells: CFBE41o-, doxycycline-inducible
T1 sequence (P13569 with tags, fused parts or gaps DEL508-508): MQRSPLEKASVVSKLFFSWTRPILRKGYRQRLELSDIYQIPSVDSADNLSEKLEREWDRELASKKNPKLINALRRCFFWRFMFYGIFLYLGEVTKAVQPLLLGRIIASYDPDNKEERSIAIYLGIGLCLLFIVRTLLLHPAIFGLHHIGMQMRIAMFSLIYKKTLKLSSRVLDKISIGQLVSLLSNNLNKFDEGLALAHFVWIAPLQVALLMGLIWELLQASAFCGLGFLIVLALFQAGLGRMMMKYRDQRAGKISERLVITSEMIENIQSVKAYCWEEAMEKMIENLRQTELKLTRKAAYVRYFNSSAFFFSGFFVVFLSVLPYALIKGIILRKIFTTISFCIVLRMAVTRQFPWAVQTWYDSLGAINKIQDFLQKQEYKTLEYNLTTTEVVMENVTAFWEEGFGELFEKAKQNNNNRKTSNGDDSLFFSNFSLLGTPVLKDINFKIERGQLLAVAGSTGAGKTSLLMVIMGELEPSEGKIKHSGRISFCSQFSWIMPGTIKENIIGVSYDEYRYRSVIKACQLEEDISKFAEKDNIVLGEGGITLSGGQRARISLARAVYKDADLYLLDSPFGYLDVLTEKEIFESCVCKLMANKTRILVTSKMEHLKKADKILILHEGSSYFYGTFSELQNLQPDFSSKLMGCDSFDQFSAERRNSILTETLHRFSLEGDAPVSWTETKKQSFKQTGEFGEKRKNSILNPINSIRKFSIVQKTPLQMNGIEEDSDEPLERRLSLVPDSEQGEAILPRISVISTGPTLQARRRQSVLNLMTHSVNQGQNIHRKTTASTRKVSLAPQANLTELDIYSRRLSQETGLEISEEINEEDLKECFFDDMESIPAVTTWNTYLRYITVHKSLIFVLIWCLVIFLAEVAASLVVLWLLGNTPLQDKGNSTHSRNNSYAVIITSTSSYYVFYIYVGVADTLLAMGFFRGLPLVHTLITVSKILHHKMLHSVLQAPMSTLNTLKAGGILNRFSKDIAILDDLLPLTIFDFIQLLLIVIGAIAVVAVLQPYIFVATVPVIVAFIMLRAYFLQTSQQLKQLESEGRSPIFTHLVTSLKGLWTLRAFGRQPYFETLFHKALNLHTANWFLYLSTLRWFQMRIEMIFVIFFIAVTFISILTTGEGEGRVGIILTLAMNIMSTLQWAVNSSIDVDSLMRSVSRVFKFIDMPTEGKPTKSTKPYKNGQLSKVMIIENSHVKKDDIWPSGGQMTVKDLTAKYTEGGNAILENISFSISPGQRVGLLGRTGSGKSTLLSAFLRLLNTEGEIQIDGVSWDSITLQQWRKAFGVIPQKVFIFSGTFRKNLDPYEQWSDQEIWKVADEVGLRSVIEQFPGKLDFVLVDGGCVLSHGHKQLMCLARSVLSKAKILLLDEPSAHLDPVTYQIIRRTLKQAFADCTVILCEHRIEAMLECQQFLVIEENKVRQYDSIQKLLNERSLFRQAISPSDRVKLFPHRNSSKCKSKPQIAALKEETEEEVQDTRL
Summary of the method: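 Surface ΔF508-CFTR was measured as HRP chemiluminescence from an extracellular-loop-4 tag, expressed as percent activity between DMSO and a […] corrector control.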

[2] = target: T1, ΔF508-CFTR; test: CFTR cell surface levels using HRP-tagged ΔF508-CFTR expressing CFBE cells, in the presence of a co-corrector; assay type: cell-based; details: HRP-tagged ΔF508-CFTR CFBE cells, in the presence of 3 μM co-corrector; for EC50: read-out: EC50
Summary of the method: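 Chemiluminescent read-out of surface HRP (15 min, dark) after PBS washes. Activity is normalized as 100×(sample−DMSO)/(3 μM co-corrector alone−DMSO).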

Compound	% Activation [1]	EC50 [1]	% Activation [2]	EC50 [2]
CS(=O)(=O)NC(=O)c1cc(N2CC3(CCCCO3)C2)c2c(C3CCC3)nn(-c3ccccc3)c2n1 [Compound 203, 3-cyclobutyl-N-(methanesulfonyl)-4-(5-oxa-2-azaspiro[3.5]nonan-2-yl)-1-phenyl-1H-pyrazolo[3,4-b]pyridine-6-carboxamide]	82.59%	1020 nM	224.63%	328 nM
COCCS(=O)(=O)NC(=O)c1cc(N2CCN(CC(F)(F)F)CC2)c2c(C3CCC3)nn(-c3ccccc3)c2n1 [Compound 330, 3-cyclobutyl-N-(2-methoxyethanesulfonyl)-1-phenyl-4-[4-(2,2,2-trifluoroethyl)piperazin-1-yl]-1H-pyrazolo[3,4-b]pyridine-6-carboxamide]	133.1%	213 nM	285.4%	124 nM
CNS(=O)(=O)NC(=O)c1cc(N2CCC(N3CCC(F)CC3)CC2)c2c(C3CCC3)nn(-c3ccc(F)cc3)c2n1 [Compound 650, 3-cyclobutyl-4-(4-fluoro[1,4'-bipiperidin]-1'-yl)-1-(4-fluorophenyl)-N-(methylsulfamoyl)-1H-pyrazolo[3,4-b]pyridine-6-carboxamide]	385.4%	115 nM	592.45%	96.4 nM
CNS(=O)(=O)NC(=O)c1cc(N2CCC(N3CCOCC3)CC2)c2c(C3CCC3)nn(-c3ccc(F)cc3)c2n1 [Compound 517, 3-cyclobutyl-1-(4-fluorophenyl)-N-(methylsulfamoyl)-4-[4-(morpholin-4-yl)piperidin-1-yl]-1H-pyrazolo[3,4-b]pyridine-6-carboxamide]	320.5%	184 nM	520.08%	75.8 nM
CC(C)Oc1nn(-c2ccccc2)c2nc(C(=O)NS(C)(=O)=O)cc(-c3ccc(N4CCOCC4)cc3)c12 [Compound 166, N-(methanesulfonyl)-4-[4-(morpholin-4-yl)phenyl]-1-phenyl-3-[(propan-2-yl)oxy]-1H-pyrazolo[3,4-b]pyridine-6-carboxamide]	235.2%	439 nM	408.53%	310 nM
CC(C)c1nn(-c2cc(F)cc(F)c2)c2nc(C(=O)NS(C)(=O)=O)cc(-c3ccc(N4CCC(C#N)CC4)cc3)c12 [Compound 130, 4-[4-(4-cyanopiperidin-1-yl)phenyl]-1-(3,5-difluorophenyl)-N-(methanesulfonyl)-3-(propan-2-yl)-1H-pyrazolo[3,4-b]pyridine-6-carboxamide]	318.25%	541 nM	496.9%	540 nM
CC1(S(=O)(=O)NC(=O)c2cc(N3CCC(CN4CCCC4)CC3)c3c(C4CCC4)nn(-c4ccccc4)c3n2)CC1 [Compound 461, 3-cyclobutyl-N-(1-methylcyclopropane-1-sulfonyl)-1-phenyl-4-{4-[(pyrrolidin-1-yl)methyl]piperidin-1-yl}-1H-pyrazolo[3,4-b]pyridine-6-carboxamide]	212.3%	209 nM	364.1%	177 nM
COCCN(C)c1cc(C(=O)NS(C)(=O)=O)nc2c1c(C(C)C)nn2-c1cccc(C)c1 [Compound 170, N-(methanesulfonyl)-4-[(2-methoxyethyl)(methyl)amino]-1-(3-methylphenyl)-3-(propan-2-yl)-1H-pyrazolo[3,4-b]pyridine-6-carboxamide]	213.5%	975 nM	425.6%	722 nM
CC(C)c1nn(-c2cccc(C(F)(F)F)c2)c2nc(C(=O)NS(C)(=O)=O)cc(-c3ccc(N4CCC(C#N)CC4)nc3)c12 [Compound 124, 4-[6-(4-cyanopiperidin-1-yl)pyridin-3-yl]-N-(methanesulfonyl)-3-(propan-2-yl)-1-[3-(trifluoromethyl)phenyl]-1H-pyrazolo[3,4-b]pyridine-6-carboxamide]	288.1%	545 nM	447.23%	312 nM
